Assay results as given in BindingDB's records for doi:10.1021/jm990336n (Boehringer Ingelheim Pharmaceuticals, 2000).

Molecular target: T1, Dimer of Gag-Pol polyprotein [489-587] (Human immunodeficiency virus 1, UniProt P12497)
T1 construct: 489-587
Test: Protease Inhibition Assay
Details: pH 5.5; 37 °C
Description: Sensitivity of HIV-1 protease activity to protease inhibitors was determined by a peptide substrate cleavage assay. Cleavage products and substrate were separated by reversed-phase HPLC on a Perkin-Elmer 3 X 3CR C8 column.

Row | SMILES | IC50 [nM]
1 | CC(C)[C@H](NC(=O)c1ccc2ccccc2n1)C(=O)N[C@@H](Cc1ccccc1)[C@H](O)CN1CC[C@@H](OCc2ccncc2)C[C@H]1C(=O)NC(C)(C)C | 4
2 | CC(C)(C)NC(=O)[C@@H]1C[C@H](OCc2ccncc2)CCN1C[C@@H](O)[C@H](Cc1ccccc1)NC(=O)CCCc1ccccc1 [(2S,4R)-N-tert-butyl-1-[(2R,3S)-2-hydroxy-4-phenyl-3-(4-phenylbutanamido)butyl]-4-(pyridin-4-ylmethoxy)piperidine-2-carboxamide] | > 20000
3 | CC(C)(C)NC(=O)[C@@H]1C[C@H](OCc2ccncc2)CCN1C[C@@H](O)[C@H](Cc1ccccc1)NC(=O)O[C@H]1CCOC1 [(3S)-oxolan-3-yl N-[(2S,3R)-4-[(2S,4R)-2-(tert-butylcarbamoyl)-4-(pyridin-4-ylmethoxy)piperidin-1-yl]-3-hydroxy-1-phenylbutan-2-yl]carbamate] | 260
4 | CC(C)CN(C[C@@H](O)[C@H](Cc1ccccc1)NC(=O)O[C@H]1CCOC1)S(=O)(=O)c1ccc(N)cc1 [VX-478] | 2.6
